From PubChem BioAssay (NCI)
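Step 1: Grow cells in 96-well plates. Step 2: Expose to compound for 48 hours at 5 concentrations. Step 3: Interpolate endpoints linearly; if unreached, use highest concentration. GI50: concentration for 50% inhibition of growth. TGI: concentration producing complete growth inhibition.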

Columns and labels:
Assay in all cases: NCI tumour cell line growth inhibition, 48 h
A549 NSCLC = test system: A549 NSCLC
NCI-H23 lung = test system: NCI-H23 lung
NCI-H460 lung = test system: NCI-H460 lung
OVCAR-8 ovarian = test system: OVCAR-8 ovarian
PC-3 prostate = test system: PC-3 prostate
RXF 393 renal = test system: RXF 393 renal
SF-295 CNS = test system: SF-295 CNS
SK-OV-3 ovarian = test system: SK-OV-3 ovarian
SNB-19 CNS = test system: SNB-19 CNS
UACC-62 melanoma = test system: UACC-62 melanoma
BT-549 breast = test system: BT-549 breast

SMILES | TGI (A549 NSCLC) | TGI (NCI-H23 lung) | TGI (NCI-H460 lung) | TGI (OVCAR-8 ovarian) | TGI (PC-3 prostate) | TGI (RXF 393 renal) | TGI (SF-295 CNS) | TGI (SK-OV-3 ovarian) | TGI (SNB-19 CNS) | TGI (UACC-62 melanoma) | GI50 (SF-295 CNS) | TGI (BT-549 breast) | GI50 (UACC-62 melanoma) | GI50 (OVCAR-8 ovarian) | GI50 (PC-3 prostate) | GI50 (SK-OV-3 ovarian) | GI50 (SNB-19 CNS)
NC1CC2C3CCC2C1C3=O (stereo not drawn) | > 100 µM | > 100 µM | > 100 µM | > 100 µM | > 100 µM | > 100 µM | > 100 µM | > 100 µM | > 100 µM | > 100 µM |  |  |  |  |  |  | 
[Cl-].[Rh+3].c1ccc(-c2ccnc3c2ccc2c(-c4ccccc4)ccnc23)cc1.c1ccc(-c2ccnc3c2ccc2c(-c4ccccc4)ccnc23)cc1.c1ccc(-c2ccnc3c2ccc2c(-c4ccccc4)ccnc23)cc1 | > 100 µM | > 100 µM | > 100 µM | > 100 µM |  | > 100 µM | > 100 µM | > 100 µM | > 100 µM | > 100 µM | 31.3 µM |  |  |  |  |  | 
Cc1ccc(S(=O)(=O)N2CCSCCSCCN(S(=O)(=O)c3ccc(C)cc3)CCN(S(=O)(=O)c3ccc(C)cc3)CC2)cc1 | > 100 µM | > 100 µM | > 100 µM | > 100 µM | > 100 µM | > 100 µM | > 100 µM | > 100 µM | > 100 µM |  |  | > 100 µM |  |  |  |  | 
O=C(CSc1nnc(Cc2ccccc2)o1)Nc1ccc(Cl)cc1 | > 100 µM | > 100 µM | > 100 µM | > 100 µM |  | > 100 µM | > 100 µM | > 100 µM | > 100 µM | > 100 µM |  |  |  |  |  |  | 
c1ccc2c(c1)CCc1c-2n(CCN2CCCCC2)c2ccccc12 | 43.7 µM | 32.1 µM | 29.7 µM | 32 µM | 27.1 µM |  | 30.8 µM | 49.7 µM | 94.5 µM | 29.1 µM |  | 42.1 µM |  |  |  |  | 
Cc1cc2c(cc1O)CC[C@@H]1[C@@H]2CC[C@]2(C)[C@@H](O)CC[C@@H]12 | > 100 µM | 35 µM | 29.8 µM | 51.7 µM | 37.7 µM |  | 20.3 µM | 34.1 µM | 33.1 µM | 21 µM |  | 20.1 µM | 5.39 µM |  |  |  | 
Cc1ccc(/C=C2\NC(=S)N(CN3CCOCC3)C2=O)cc1 | > 100 µM | > 100 µM |  | > 100 µM | > 100 µM |  | > 100 µM | > 100 µM | > 100 µM | > 100 µM |  |  |  |  |  |  | 
CC(C)CCCC(C)[C@H]1CC[C@H]2[C@@H]3CC[C@H]4C[C@@H](CCC=C(c5cc(Cl)c(O)c(C(=O)OC(C)(C)C)c5)c5cc(Cl)c(O)c(C(=O)OC(C)(C)C)c5)CC[C@]4(C)[C@H]3CC[C@]12C (stereo partly drawn) | > 50 µM | > 50 µM |  |  | > 50 µM | > 50 µM | > 50 µM | > 50 µM | > 50 µM | > 50 µM |  | > 50 µM |  |  |  |  | 
CCCn1cnc2c(NN=O)ncnc21 |  | > 100 µM | > 100 µM | > 100 µM | > 100 µM | > 100 µM |  |  | > 100 µM | > 100 µM |  | > 100 µM |  |  |  |  | 
O=C(O)Cc1ccc(N2N=C(c3ccccc3)CC2=O)cc1 |  | > 100 µM | > 100 µM | > 100 µM | > 100 µM |  | > 100 µM | > 100 µM | > 100 µM | > 100 µM |  | > 100 µM |  |  |  |  | 
CCOC(=O)c1c(C)n(Cc2ccccc2)c2c1cc(O)c1[nH]c3c(c12)CCCC3 | 19.6 µM | 29.9 µM | 7.32 µM | 20.6 µM | 9.92 µM |  | 11.5 µM | 24.5 µM | 16.5 µM | 4.32 µM |  | 24.6 µM |  |  |  |  | 
Oc1ccc2c(c1)OCC(O)(c1ccccc1O)C2 (stereo not drawn) |  | > 100 µM | > 100 µM | > 100 µM | > 100 µM | > 100 µM | > 100 µM | > 100 µM | > 100 µM | > 100 µM |  | > 100 µM |  |  |  |  | 
O=c1ccc2ccccc2o1 | > 100 µM | > 100 µM | > 100 µM | > 100 µM |  | > 100 µM | > 100 µM | > 100 µM | > 100 µM | > 100 µM |  |  |  |  |  |  | 
CN(C)c1ccc(/C=C/c2sc3ccc4ccccc4c3[n+]2C)cc1 |  |  |  | 1.67 µM | 1.71 µM |  | 2.32 µM | 2.4 µM | > 100 µM |  | 0.395 µM |  |  | 0.285 µM | 0.315 µM | 0.482 µM | 0.521 µM
O=c1c2cc(Br)ccc2oc2nc3n(c(=O)c12)CCCS3 | > 100 µM | > 100 µM | > 100 µM | > 100 µM | > 100 µM | > 100 µM | > 100 µM |  | > 100 µM | > 100 µM |  | > 100 µM |  |  |  |  | 
CN1N=C2c3ccccc3CC[C@H]2C1c1ccccc1 (stereo partly drawn) | > 100 µM | > 100 µM | > 100 µM | > 100 µM |  | 81.5 µM | > 100 µM | > 100 µM | > 100 µM | > 100 µM |  |  |  |  |  |  | 
Cn1c(C(C#N)c2cc(Cl)ncn2)nc2ccccc21 (stereo not drawn) | > 100 µM | > 100 µM | > 100 µM | > 100 µM |  | > 100 µM | > 100 µM | > 100 µM | > 100 µM |  |  | > 100 µM |  |  |  |  | 
CCSc1nc2sc(C)c(C)c2c(=O)n1-c1ccc(C(=O)O)cc1 | > 100 µM | > 100 µM | > 100 µM | > 100 µM |  | > 100 µM | > 100 µM | > 100 µM | > 100 µM | > 100 µM |  |  |  |  |  |  | 
CO/N=C1\CCC2(O)C3Cc4ccc(O)c5c4C2(CCN3CC2CC2)[C@H]1O5 (stereo partly drawn) | > 100 µM | > 100 µM |  | > 100 µM | > 100 µM |  | > 100 µM | > 100 µM | > 100 µM | > 100 µM |  | > 100 µM |  |  |  |  | 
OCCCSc1ccccc1SCCCO | > 100 µM | > 100 µM | > 100 µM | > 100 µM | > 100 µM |  | > 100 µM | > 100 µM | > 100 µM | > 100 µM |  | > 100 µM |  |  |  |  | 
COC(=O)C(NC(=O)CNC(=O)CSc1nnc(COc2ccc(Cl)cc2)n1-c1ccccc1)C(C)C (stereo not drawn) | > 100 µM | 42.8 µM | 36.2 µM | 40.8 µM | 33 µM | 32.8 µM | 34.5 µM |  | 50.1 µM | 31.8 µM |  | 34 µM |  |  |  |  | 
C/C=C(/C)C(=O)O[C@@H]1c2c(C)coc2C[C@H]2CC[C@H](O)[C@H](C)[C@]21C |  | > 100 µM | > 100 µM | > 100 µM | > 100 µM | 78.2 µM | > 100 µM | > 100 µM | > 100 µM | > 100 µM |  |  |  |  |  |  | 
